{
  "source": "patent US20250059610A1",
  "about": "“METHODS OF TREATING TUMOR” (priority 2017, published 2025)",
  "key": {"[1]": {"conditions": "monotherapy, every two weeks; cited from earlier work"}, "[2]": {"tested_on": "recurrent small cell lung cancer (SCLC)", "assay": "Clinical trial of nivolumab alone or with ipilimumab in SCLC, exploratory TMB analysis", "format": "in vivo, human", "from_the_text": "Subjects were selects who had previously been diagnosed with SCLC, and who had previously received at least one prior platinum-containing regimen (FIG. 23).\nThe primary objective was to measure the objective response rate (ORR) by per RECIST v1.1. Secondary objectives included monitoring safety, overall survival (OS), progression free survival (PFS), and duration of response (DOR). Prespecified exploratory objectives included biomarker analysis and health status using the EQ-5D instrument.\nTMB was determined by whole exome sequencing, using an Illumina HiSeq 2500 using 2×100-bp paired-end reads, and calculated as the total number of nonsynonymous missense mutations in the tumor. For exploratory analyses, patients were divided into 3 subgroups based on TMB tertile."}, "PD-1": {"target": "T1, PD-1 (Homo sapiens, UniProt Q15116)", "T1 construct": "PD-1 occupancy appears to be dose-independent in this dose range", "T1 sequence (Q15116 25-288)": "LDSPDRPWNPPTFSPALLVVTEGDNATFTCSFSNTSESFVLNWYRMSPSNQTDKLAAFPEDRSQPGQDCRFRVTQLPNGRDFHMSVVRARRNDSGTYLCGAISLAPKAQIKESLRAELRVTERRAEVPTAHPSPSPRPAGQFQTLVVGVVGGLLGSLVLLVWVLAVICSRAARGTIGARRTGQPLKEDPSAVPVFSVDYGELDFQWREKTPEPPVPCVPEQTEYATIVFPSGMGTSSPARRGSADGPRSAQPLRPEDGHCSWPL", "conditions": "across all doses, 0.3 mg/kg to 10 mg/kg; cited from earlier work"}, "[3]": {"tested_on": "metastatic or surgically unresectable urothelial carcinoma (UC)", "assay": "Single-arm phase II study of nivolumab (CheckMate 275), TMB analysis", "format": "in vivo, human", "protocol": "Tumor DNA from pretreatment archival tumor tissue and matched whole blood samples was profiled by whole exome sequencing. TMB was defined as the total number of missense somatic mutations per tumor, and was evaluated as a continuous variable and by tertiles (missense count: high 167, medium 85-166, low <85). Cox models were used to explore the association between TMB and progression-free survival (PFS) and overall survival (OS); and logistic regression for objective response rate (ORR). Tumor PD-ligand 1 (PD-L1) expression was assessed by Dako PD-L1 immunohistochemistry 28-8 assay and was categorized as <1%."}, "[4]": {"tested_on": "stage IV or recurrent NSCLC", "assay": "Multi-part phase 3 study of first-line nivolumab plus ipilimumab versus chemotherapy: efficacy", "format": "in vivo, human", "description": "Patients had chemotherapy-naive, stage IV or recurrent NSCLC.\nAdult patients with PD-L1-histologically confirmed squamous or nonsquamous stage IV/recurrent NSCLC and Eastern Cooperative Oncology Group (ECOG) performance status (Oken M. M., et al. Am J Clin Oncol 5:649-55 (1982)) of 0 or 1 who had received no prior systemic anticancer therapy as primary therapy for advanced or metastatic disease were eligible for the study. All patients underwent imaging to screen for brain metastases. Patients with known EGFR mutations or ALK translocations sensitive to targeted therapy, an autoimmune disease, or untreated central nervous system metastases were excluded.\nAll treatments continued until disease progression, unacceptable toxicity, or completion per protocol (up to 2 years for immunotherapy). Crossover between treatment arms within the study was not permitted.\nPart 1 of this study had two co-primary endpoints.\nHazard ratios of PFS with associated two-sided confidence intervals were estimated using an unstratified Cox proportional hazard model, with treatment group as a single covariate. A multivariate analysis was prespecified in patients with TMB≥10 mutations/Mb to assess the influence of known prognostic baseline factors on PFS. […] Survival curves were estimated using Kaplan-Meier methodology."}, "NSCLC": {"tested_on": "NSCLC", "conditions": "10 patients with ≥5% PD-L1 expression; monotherapy cohort; cited from earlier work"}},
  "data": [
    {"substance": "Nivolumab", "values": [
      {"measurement": "maximum tolerated dose (MTD), not reached up to", "setting": "[1]", "value": "> 10", "unit": "mg/kg"},
      {"measurement": "ORR", "setting": "[2]; ITT patients", "value": 11.4, "unit": "%"},
      {"measurement": "ORR", "setting": "[2]; TMB-evaluable patients", "value": 11.3, "unit": "%"},
      {"measurement": "ORR", "setting": "[2]; high TMB", "value": "about 21.3%"},
      {"measurement": "OS at 1 year", "setting": "[2]; high TMB", "value": 35.2, "unit": "%"},
      {"measurement": "PFS at 1 year", "setting": "[2]; high TMB", "value": 21.2, "unit": "%"},
      {"measurement": "average PFS", "setting": "[2]; high TMB", "value": "about 1.4%"},
      {"measurement": "median OS", "setting": "[2]; high TMB", "value": "about 5.4%"},
      {"measurement": "patients with overall survival over 2 years", "setting": "[2]; initial results of the SCLC trial", "value": 14, "unit": "%"},
      {"measurement": "ORR", "setting": "[2]; low TMB", "value": "about 4.8%"},
      {"measurement": "OS at 1 year", "setting": "[2]; low TMB", "value": 22.1, "unit": "%"},
      {"measurement": "average PFS", "setting": "[2]; low TMB", "value": "about 1.3%"},
      {"measurement": "median OS", "setting": "[2]; low TMB", "value": "about 3.1%"},
      {"measurement": "ORR", "setting": "[2]; medium TMB", "value": "about 6.8%"},
      {"measurement": "OS at 1 year", "setting": "[2]; medium TMB", "value": "about 26.0%"},
      {"measurement": "PFS at 1 year", "setting": "[2]; medium TMB", "value": 3.15, "unit": "%"},
      {"measurement": "average PFS", "setting": "[2]; medium TMB", "value": "about 1.3%"},
      {"measurement": "median OS", "setting": "[2]; medium TMB", "value": "about 3.9%"},
      {"measurement": "mean PD-1 occupancy rate", "setting": "PD-1", "value": 85, "unit": "%"},
      {"measurement": "mean plateau PD-1 occupancy", "setting": "PD-1", "value": 72, "unit": "%"},
      {"measurement": "OS, median", "setting": "[3]; All Pts", "value": 8.57, "unit": "months"},
      {"measurement": "PFS, median", "setting": "[3]; All Pts", "value": 2.00, "unit": "month"},
      {"measurement": "ORR", "setting": "[3]; All Pts (N 270)", "value": 20.0, "unit": "%"},
      {"measurement": "ORR", "setting": "[3]; All Pts, PD-L1 1%", "value": 25.0, "unit": "%"},
      {"measurement": "OS, median", "setting": "[3]; All Pts, PD-L1 1%", "value": 11.63, "unit": "months"},
      {"measurement": "PFS, median", "setting": "[3]; All Pts, PD-L1 1%", "value": 3.53, "unit": "month"},
      {"measurement": "ORR", "setting": "[3]; All Pts, PD-L1 <1%", "value": 15.8, "unit": "%"},
      {"measurement": "OS, median", "setting": "[3]; All Pts, PD-L1 <1%", "value": 5.95, "unit": "months"},
      {"measurement": "PFS, median", "setting": "[3]; All Pts, PD-L1 <1%", "value": 1.87, "unit": "month"},
      {"measurement": "ORR", "setting": "[3]; TMB High", "value": 31.9, "unit": "%"},
      {"measurement": "OS, median", "setting": "[3]; TMB High", "value": 11.63, "unit": "months"},
      {"measurement": "PFS, median", "setting": "[3]; TMB High", "value": 3.02, "unit": "month"},
      {"measurement": "ORR", "setting": "[3]; TMB High, PD-L1 1%", "value": 33.3, "unit": "%"},
      {"measurement": "OS, median", "setting": "[3]; TMB High, PD-L1 1%", "value": 10.60, "unit": "months"},
      {"measurement": "PFS, median", "setting": "[3]; TMB High, PD-L1 1%", "value": 3.52, "unit": "month"},
      {"measurement": "ORR", "setting": "[3]; TMB High, PD-L1 <1%", "value": 30.4, "unit": "%"},
      {"measurement": "PFS, median", "setting": "[3]; TMB High, PD-L1 <1%", "value": 3.02, "unit": "month"},
      {"measurement": "ORR", "setting": "[3]; TMB Low", "value": 10.9, "unit": "%"},
      {"measurement": "OS, median", "setting": "[3]; TMB Low", "value": 5.72, "unit": "months"},
      {"measurement": "PFS, median", "setting": "[3]; TMB Low", "value": 1.91, "unit": "month"},
      {"measurement": "ORR", "setting": "[3]; TMB Low, PD-L1 1%", "value": 23.8, "unit": "%"},
      {"measurement": "OS, median", "setting": "[3]; TMB Low, PD-L1 1%", "value": 8.57, "unit": "months"},
      {"measurement": "PFS, median", "setting": "[3]; TMB Low, PD-L1 1%", "value": 3.12, "unit": "month"},
      {"measurement": "ORR", "setting": "[3]; TMB Low, PD-L1 <1%", "value": 0, "unit": "%"},
      {"measurement": "OS, median", "setting": "[3]; TMB Low, PD-L1 <1%", "value": 4.96, "unit": "months"},
      {"measurement": "PFS, median", "setting": "[3]; TMB Low, PD-L1 <1%", "value": 1.77, "unit": "month"},
      {"measurement": "ORR", "setting": "[3]; TMB Medium", "value": 17.4, "unit": "%"},
      {"measurement": "OS, median", "setting": "[3]; TMB Medium", "value": 9.66, "unit": "months"},
      {"measurement": "PFS, median", "setting": "[3]; TMB Medium", "value": 1.87, "unit": "month"},
      {"measurement": "ORR", "setting": "[3]; TMB Medium, PD-L1 1%", "value": 12.0, "unit": "%"},
      {"measurement": "OS, median", "setting": "[3]; TMB Medium, PD-L1 1%", "value": 11.30, "unit": "months"},
      {"measurement": "PFS, median", "setting": "[3]; TMB Medium, PD-L1 1%", "value": 1.94, "unit": "month"},
      {"measurement": "ORR", "setting": "[3]; TMB Medium, PD-L1 <1%", "value": 23.8, "unit": "%"},
      {"measurement": "OS, median", "setting": "[3]; TMB Medium, PD-L1 <1%", "value": 4.53, "unit": "months"},
      {"measurement": "PFS, median", "setting": "[3]; TMB Medium, PD-L1 <1%", "value": 1.77, "unit": "month"},
      {"measurement": "OS, median", "setting": "[3]; TMB Subgroup", "value": 7.23, "unit": "months"},
      {"measurement": "PFS, median", "setting": "[3]; TMB Subgroup", "value": 2.00, "unit": "month"},
      {"measurement": "ORR", "setting": "[3]; TMB Subgroup (N 139)", "value": 20.1, "unit": "%"},
      {"measurement": "ORR", "setting": "[3]; TMB Subgroup, PD-L1 1%", "value": 22.9, "unit": "%"},
      {"measurement": "OS, median", "setting": "[3]; TMB Subgroup, PD-L1 1%", "value": 10.28, "unit": "months"},
      {"measurement": "PFS, median", "setting": "[3]; TMB Subgroup, PD-L1 1%", "value": 2.30, "unit": "month"},
      {"measurement": "ORR", "setting": "[3]; TMB Subgroup, PD-L1 <1%", "value": 17.4, "unit": "%"},
      {"measurement": "OS, median", "setting": "[3]; TMB Subgroup, PD-L1 <1%", "value": 5.68, "unit": "months"},
      {"measurement": "PFS, median", "setting": "[3]; TMB Subgroup, PD-L1 <1%", "value": 1.87, "unit": "month"},
      {"measurement": "median PFS", "setting": "[4]; TMB≥10 mutations/Mb and ≥1% PD-L1 expression", "value": 4.2, "unit": "months"},
      {"measurement": "median PFS", "setting": "[4]; TMB≥13 mutations/Mb and ≥1% PD-L1 expression", "value": 4.2, "unit": "months"},
      {"measurement": "PFS rate at 24 weeks", "setting": "NSCLC", "value": 70, "unit": "%"},
      {"measurement": "median PFS", "setting": "NSCLC", "value": 10.6, "unit": "months"},
      {"measurement": "objective response rate (ORR)", "setting": "NSCLC", "value": 50, "unit": "%"}
    ]}
  ]
}
